Test system: general behavior of male mice
Test: General behavior of male mice by visual observation using a checklist of behaviors
Format: in vivo
Details: for Number of Mice Affected: Decreased Open Field Activity / Number of Mice Affected: Decreased Startle Reflex / Number of Mice Affected: Extensor Limb Tone (hind limb) / Number of Mice Affected: Impaired Horizontal Screen Performance / Number of Mice Affected: Impaired Visual Placing Reflex / Number of Mice Affected: Locomotor Ataxia / Number of Mice Affected: Loss of Corneal Reflex / Number of Mice Affected: Loss of Pinnal Reflex / Number of Mice Affected: Loss of Righting Reflex / Number of Mice Affected: Passive Response to Handling / Number of Mice Affected: Reduced Skin Plasticity / Number of Mice Affected: Soft Body Tone / Number of Mice Affected: Tail Pinch Response, Absent: N = 3/group
Method: The effects of test compound on general behavior were evaluated by visual observation using a checklist of behaviors.

Number of Mice Affected: Decreased Open Field Activity (40 mg/kg p.o., 1 h): 0 | Number of Mice Affected: Decreased Startle Reflex (40 mg/kg p.o., 1 h): 0 | Number of Mice Affected: Extensor Limb Tone (hind limb) (40 mg/kg p.o., 1 h): 0 | Number of Mice Affected: Impaired Horizontal Screen Performance (40 mg/kg p.o., 1 h): 0 | Number of Mice Affected: Impaired Visual Placing Reflex (40 mg/kg p.o., 1 h): 0 | Number of Mice Affected: Loss of Corneal Reflex (40 mg/kg p.o., 1 h): 0 | Number of Mice Affected: Loss of Pinnal Reflex (40 mg/kg p.o., 1 h): 0 | Number of Mice Affected: Loss of Righting Reflex (40 mg/kg p.o., 1 h): 0 | Number of Mice Affected: Passive Response to Handling (40 mg/kg p.o., 1 h): 0 | Number of Mice Affected: Reduced Skin Plasticity (40 mg/kg p.o., 1 h): 0 | Number of Mice Affected: Soft Body Tone (40 mg/kg p.o., 1 h): 0 | Number of Mice Affected: Tail Pinch Response, Absent (40 mg/kg p.o., 1 h): 0 | Number of Mice Affected: Decreased Open Field Activity (40 mg/kg p.o., 4 h): 0 | Number of Mice Affected: Decreased Startle Reflex (40 mg/kg p.o., 4 h): 0 | Number of Mice Affected: Extensor Limb Tone (hind limb) (40 mg/kg p.o., 4 h): 0 | Number of Mice Affected: Impaired Horizontal Screen Performance (40 mg/kg p.o., 4 h): 0 | Number of Mice Affected: Impaired Visual Placing Reflex (40 mg/kg p.o., 4 h): 0 | Number of Mice Affected: Loss of Corneal Reflex (40 mg/kg p.o., 4 h): 0 | Number of Mice Affected: Loss of Pinnal Reflex (40 mg/kg p.o., 4 h): 0 | Number of Mice Affected: Loss of Righting Reflex (40 mg/kg p.o., 4 h): 0 | Number of Mice Affected: Passive Response to Handling (40 mg/kg p.o., 4 h): 0 | Number of Mice Affected: Reduced Skin Plasticity (40 mg/kg p.o., 4 h): 0 | Number of Mice Affected: Soft Body Tone (40 mg/kg p.o., 4 h): 0 | Number of Mice Affected: Tail Pinch Response, Absent (40 mg/kg p.o., 4 h): 0 | Number of Mice Affected: Decreased Open Field Activity (100 mg/kg p.o., 1 h): 0 | Number of Mice Affected: Decreased Startle Reflex (100 mg/kg p.o., 1 h): 0 | Number of Mice Affected: Extensor Limb Tone (hind limb) (100 mg/kg p.o., 1 h): 0 | Number of Mice Affected: Impaired Horizontal Screen Performance (100 mg/kg p.o., 1 h): 0 | Number of Mice Affected: Impaired Visual Placing Reflex (100 mg/kg p.o., 1 h): 0 | Number of Mice Affected: Loss of Corneal Reflex (100 mg/kg p.o., 1 h): 0 | Number of Mice Affected: Loss of Pinnal Reflex (100 mg/kg p.o., 1 h): 0 | Number of Mice Affected: Loss of Righting Reflex (100 mg/kg p.o., 1 h): 0 | Number of Mice Affected: Passive Response to Handling (100 mg/kg p.o., 1 h): 0 | Number of Mice Affected: Reduced Skin Plasticity (100 mg/kg p.o., 1 h): 0 | Number of Mice Affected: Soft Body Tone (100 mg/kg p.o., 1 h): 0 | Number of Mice Affected: Tail Pinch Response, Absent (100 mg/kg p.o., 1 h): 0 | Number of Mice Affected: Decreased Open Field Activity (100 mg/kg p.o., 4 h): 0 | Number of Mice Affected: Decreased Startle Reflex (100 mg/kg p.o., 4 h): 0 | Number of Mice Affected: Extensor Limb Tone (hind limb) (100 mg/kg p.o., 4 h): 0 | Number of Mice Affected: Impaired Horizontal Screen Performance (100 mg/kg p.o., 4 h): 0 | Number of Mice Affected: Impaired Visual Placing Reflex (100 mg/kg p.o., 4 h): 0 | Number of Mice Affected: Loss of Corneal Reflex (100 mg/kg p.o., 4 h): 0 | Number of Mice Affected: Loss of Pinnal Reflex (100 mg/kg p.o., 4 h): 0 | Number of Mice Affected: Loss of Righting Reflex (100 mg/kg p.o., 4 h): 0 | Number of Mice Affected: Passive Response to Handling (100 mg/kg p.o., 4 h): 0 | Number of Mice Affected: Reduced Skin Plasticity (100 mg/kg p.o., 4 h): 0 | Number of Mice Affected: Soft Body Tone (100 mg/kg p.o., 4 h): 0 | Number of Mice Affected: Tail Pinch Response, Absent (100 mg/kg p.o., 4 h): 0 | Number of Mice Affected: Decreased Open Field Activity (300 mg/kg p.o., 1 h): 3 | Number of Mice Affected: Decreased Startle Reflex (300 mg/kg p.o., 1 h): 3 | Number of Mice Affected: Extensor Limb Tone (hind limb) (300 mg/kg p.o., 1 h): 3 | Number of Mice Affected: Impaired Horizontal Screen Performance (300 mg/kg p.o., 1 h): 3 | Number of Mice Affected: Impaired Visual Placing Reflex (300 mg/kg p.o., 1 h): 3 | Number of Mice Affected: Loss of Corneal Reflex (300 mg/kg p.o., 1 h): 3 | Number of Mice Affected: Loss of Pinnal Reflex (300 mg/kg p.o., 1 h): 3 | Number of Mice Affected: Loss of Righting Reflex (300 mg/kg p.o., 1 h): 3 | Number of Mice Affected: Passive Response to Handling (300 mg/kg p.o., 1 h): 3 | Number of Mice Affected: Reduced Skin Plasticity (300 mg/kg p.o., 1 h): 3 | Number of Mice Affected: Soft Body Tone (300 mg/kg p.o., 1 h): 3 | Number of Mice Affected: Tail Pinch Response, Absent (300 mg/kg p.o., 1 h): 3 | Number of Mice Affected: Decreased Open Field Activity (300 mg/kg p.o., 4 h): 2 | Number of Mice Affected: Decreased Startle Reflex (300 mg/kg p.o., 4 h): 0 | Number of Mice Affected: Extensor Limb Tone (hind limb) (300 mg/kg p.o., 4 h): 2 | Number of Mice Affected: Impaired Horizontal Screen Performance (300 mg/kg p.o., 4 h): 2 | Number of Mice Affected: Impaired Visual Placing Reflex (300 mg/kg p.o., 4 h): 0 | Number of Mice Affected: Loss of Corneal Reflex (300 mg/kg p.o., 4 h): 0 | Number of Mice Affected: Loss of Pinnal Reflex (300 mg/kg p.o., 4 h): 0 | Number of Mice Affected: Loss of Righting Reflex (300 mg/kg p.o., 4 h): 0 | Number of Mice Affected: Passive Response to Handling (300 mg/kg p.o., 4 h): 0 | Number of Mice Affected: Reduced Skin Plasticity (300 mg/kg p.o., 4 h): 0 | Number of Mice Affected: Soft Body Tone (300 mg/kg p.o., 4 h): 2 | Number of Mice Affected: Tail Pinch Response, Absent (300 mg/kg p.o., 4 h): 0
Compound: NC(=O)OC[C@@H](O)c1ccccc1Cl [COMPOUND #7, carisbamate]
Number of Mice Affected: Locomotor Ataxia (40 mg/kg p.o., 1 h): 0 | Number of Mice Affected: Locomotor Ataxia (40 mg/kg p.o., 4 h): 0 | Number of Mice Affected: Locomotor Ataxia (100 mg/kg p.o., 1 h): 0 | Number of Mice Affected: Locomotor Ataxia (100 mg/kg p.o., 4 h): 0 | effect on general behavior in mice (300 mg/kg p.o.): produced sedation | Number of Mice Affected: Locomotor Ataxia (300 mg/kg p.o., 1 h): 0 | Number of Mice Affected: Locomotor Ataxia (300 mg/kg p.o., 4 h): 2 | behavioral or physical signs in mice (doses up to 100 mg/kg p.o.): No behavioral or physical signs were observed

Source: patent publication US20080103127A1, “METHODS FOR TREATING DISRUPTIVE BEHAVIOR DISORDERS” (priority 2006, published 2008)
